Experimental data taken from patent US5639906A, “Fluorescent and NMR sensitive pH indicators” (The United States of America as represented by the …, priority 1994, dated 1997).
“Also recorded” adds a separate entry of the source.

How the values were obtained:
[1] = 19F NMR pH titration of fluorinated indicators; assay type: physicochemical; settings: for pK (theoretical titration curve, FIG. 2): 19F shift as a function of pH; for δ1 (limiting 19F shift difference of theoretical curve, FIG. 2) / δ2 (limiting 19F shift difference of theoretical curve, FIG. 2): shift difference between the two fluorine resonances
Excerpt: The sample also contained Sodium Flouride as an internal chemical shift standard.
The shift for 5F NEAP-1 is referenced to the tetrafluorophthalate ^19 F resonance, while the data for 5F NEAP-2 and 5F NEAP-3 correspond to the shift differences between the two fluorine resonances. The theoretical curves correspond to: δ1 =35.6 ppm, δ2 24.7 ppm, pK=6.85 for 5F NEAP-1; δ1 =10.3 ppm, δ2 =-0.8 ppm, pK=6.6 for 5F NEAP-2; and δ1 =24.1, δ2 =13.4, pK=6.8 for 5F NEAP-3.
The magnitude of this shift, however, is insignificant in comparison to the 11 ppm titration shift of the indicator. In any event, the magnitude of this shift may be determined and corrected. In alternate embodiments, for an indicator such as NEAP-3 which contain a second fluorine to serve as a chemical shift reference both fluorines will experience a similar intracellular shift, making correction unnecessary. There is also exchange broadening of the resonance, which becomes more significant at higher magnetic field strengths. In general, the degree of broadening depends on the dissociation rate constant of the proton from the indicator. This rate is dependent on the particular indicator, on the temperature, and on the composition of the solution in which the indicator is placed. […] If the exchange is sufficiently rapid on the NMR time scale, i.e., the dissociation rate constant of the protonated indicator k-1 >>πΔv/√ 2, where Δv is the chemical shift difference of the resonance under study between the protonated and unprotonated forms of the indicator, then the observed chemical shift can be used to determine the intracellular pH according to the relation: [formula] where pK is the pK of the indicator, δo is the observed chemical shift, and δU and δP are the shifts of the unprotonated and fully protonated forms of the indicator, respectively. Although the above equation is expected to be generally adequate, at very high fields and low temperatures, the exchange might become slow enough to require a correction, as described, for example, in London, J. Magn. Reson. Series A 104, 190-196 (1993).

human erythrocytes [2] = experiment: pH measurement in human erythrocytes using 19F-NMR; assay type: cell-based
Method: (§1) FIGS. 3A and 3B show the ^19 F NMR spectra of human erythrocytes loaded with 5F NEAP-1 acetoxymethyl ester suspended in a solution containing 120 mM sodium chloride (NaCl) and 20 mM tris-[N-(2-hydroxyethyl)piperazine-N'-(2-ethanesulfonic acid)] ("tris-HEPES"). Tetrafluorophthalate ("TFPH") is also included as a chemical shift standard. […] The resonance associated with intracellular NEAP is denoted as "INTRA"; the resonance associated with extracellular NEAP is denoted as "EXTRA".
According to the present invention, intracellular pH can be determined using ^19 F NMR spectroscopy of cells containing a compound of Formula I or II. Measurements have been carried out on several physiological systems of interest, including, for example, human erythrocytes and perfused rat heart. The ^19 F NMR shifts of 5F NEAP-1, 5F NEAP-2, or 5F NEAP-3 provide information which is directly interpretable in terms of the cytosolic pH. These measurements can be made using any standard pulsed NMR spectrometer equipped with a fluorine NMR probe. Typically, at least 100 transients are required for the measurements.
III. pH Measurement in Human Erythrocytes Using ^19 F-NMR
(§2) As an illustration of the use of the current invention, the fluorinated indicator 5F NEAP-1 is used to determine the intra- and extracellular pH in a suspension of human erythrocytes. […] Based on the chemical shift difference between the NEAP fluorine resonance and the standard, an intracellular pH value of 7.3 for this preparation is determined. Subsequently, some additional 5F NEAP-1 was added as the free acid. […] It is interesting to note that the extracellular resonance is somewhat broader than the intracellular resonance. […] An extracellular pH value of 7.0 is determined from the shift (this situation is somewhat unusual since in more typical physiological preparations the intracellular pH is lower than the extracellular pH). As noted in the above sections, small errors which result from the intracellular shift displacement of 0.1-0.3 ppm, can be, but have not been accounted for. […]

human erythrocytes [3] = experiment: Membrane crossing of extracellular indicator in human erythrocyte suspension (19F NMR); assay type: in vitro ADME; settings: free acid added extracellularly
Method: as §1, §2

[4] = referenced to the tetrafluorophthalate 19F resonance

| pK (theoretical titration curve, FIG. 2) [1] | δ1 (limiting 19F shift difference of theoretical curve, FIG. 2) ([1]; unit not given) | δ2 (limiting 19F shift difference of theoretical curve, FIG. 2) ([1]; unit not given) | δ1 (limiting 19F shift difference of theoretical curve, FIG. 2) [1] [ppm] | δ2 (limiting 19F shift difference of theoretical curve, FIG. 2) [1] [ppm] | downfield 19F shift of the para-fluorine upon protonation of the nitrogen (titration shift) [1] | pK ([1]; as stated in summary) | δ1 (limiting 19F shift of theoretical curve, FIG. 2) [1, 4] [ppm] | δ2 (limiting 19F shift of theoretical curve, FIG. 2) [1, 4] [ppm] | SMILES | pH sensitivity of the fluorine resonances ([1]; FIG. 1) | extracellular pH determined with indicator (human erythrocytes [2]; free acid added to suspension, TFPH standard) | difference between intra- and extracellular pH giving well resolved NMR resonances (human erythrocytes [2]; intracellular vs extracellular resonance) [pH unit] | intracellular pH determined with indicator (human erythrocytes [2]; loaded 1 hour with acetoxymethyl ester, 120 mM NaCl, 20 mM tris-HEPES, TFPH standard) | crossing of the cell membrane (human erythrocytes [3]) |
| --- | --- | --- | --- | --- | --- | --- | --- | --- | --- | --- | --- | --- | --- | --- |
| 6.8 | 24.1 | 13.4 | – | – | – | – | – | – | CCN(CC(=O)O)c1ccc(F)cc1OCCOc1ccc(N(CC(=O)O)CC(=O)O)cc1F [5F NEAP-3, 1-(N-Ethylamino-5-fluorophenoxy)-2-(2-fluoro-4-aminophenoxy)ethane, N,N',N'-triacetic acid] | one of the fluorine resonances is pH sensitive, and the second is almost completely pH insensitive | – | – | – | – |
| 6.6 | – | – | 10.3 | -0.8 | – | – | – | – | CCN(CC(=O)O)c1ccc(F)cc1OCc1ccc(C(=O)O)cc1F [5F NEAP-2, N-Ethyl-2-(2-fluoro-4-carboxybenzyloxy)-4-fluoroaniline-N-acetic acid] | – | – | – | – | – |
| 6.85 | – | – | – | – | about 11 ppm | 6.8 | 35.6 | 24.7 | CCN(CC(=O)O)c1ccc(F)cc1OCC(=O)O [5F NEAP-1, N-ethyl-2-amino-5-fluorophenol-N,O-diacetic acid] | – | 7.0 | 0.3 | 7.3 | will not readily cross the cell membrane; also recorded: does not cross the cellular membrane in appreciable amounts |
